Assay results taken from patent USRE47689E1, “Compounds for treating spinal muscular atrophy” (PTC Therapeutics, Inc., priority 2011, dated 2019).

How the values were obtained:
[1] = system: Smn protein; assay: Smn protein assay in cultured cells (SMN HTRF); assay type: cell-based, human; settings: 48 hours; for maximum fold (Fold) increase of Smn protein: SMA patient fibroblast cells, 7-point concentration data, fold increase relative to vehicle control (SMN HTRF); for EC1.5x (concentration giving 1.5-fold Smn protein increase): SMA Type 1 patient fibroblast cells (GM03813), 7-point concentration curve, SMN HTRF, concentration producing 1.5 times Smn protein vs DMSO vehicle control, read-out: EC1.5x for Smn protein expression
How it was run: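 Lysates in RIPA with protease inhibitors are incubated overnight at room temperature with HTRF anti-SMN antibodies. EC1.5x is derived from fold increase in ΔF over vehicle.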

[2] = system: SMN2 minigene (full length SMN2 minigene mRNA containing SMN2 exon 7); assay: SMN2 minigene mRNA splicing RT-qPCR assay in cultured cells; assay type: cell-based, human; settings: Homo sapiens, HEK293-H; HEK293H cells stably transfected with SMN2-A minigene; 24 hours; 7-point concentration curve; 1.5-fold relative to vehicle-treated cells; read-out: EC1.5x for production of full length SMN2 mRNA
How it was run: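 HEK293H cells stably carrying the SMN2-A minigene treated 24 h at 37° C with compound (DMSO, 200× stock), then lysed. Multiplex RT-qPCR (SMN primers 0.4 μM final; 40 cycles) measures full-length exon 7-containing minigene mRNA, normalized to GAPDH and to vehicle; EC1.5x derived and binned by stars.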

SMILES	melting point [°C]	maximum fold (Fold) increase of Smn protein [1]	EC (1.5-fold) [2] [µM]	EC1.5x (concentration giving 1.5-fold Smn protein increase) [1] [nM]
Cc1cc([N+](=O)[O-])c2nc(-c3cc4ccc(N5C[C@@H](C)N[C@@H](C)C5)cc4oc3=O)cn2c1 [Compound 701, 7-[(3R,5S)-3,5-dimethylpiperazin-1-yl]-3-(6-methyl-8-nitroimidazo[1,2-a]pyridin-2-yl)-2H-chromen-2-one]	290 to 300	** (fold increase between >1.2 and ≤1.35)	1 to 3	–
C[C@H]1CN(c2ccc3cc(-c4cc5ccccc5s4)c(=O)oc3c2)CCN1 [Compound 410, 3-(1-benzothiophen-2-yl)-7-[(3S)-3-methylpiperazin-1-yl]-2H-chromen-2-one]	260 to 262	* (maximum fold increase of ≤1.2)	< 0.1	–
C[C@H]1CN(c2ccc3cc(-c4cn5cccc(Cl)c5n4)c(=O)oc3c2)CCN1 [Compound 184, 3-(8-chloroimidazo[1,2-a]pyridin-2-yl)-7-[(3S)-3-methylpiperazin-1-yl]-2H-chromen-2-one]	215 to 217	*** (fold increase between >1.35 and ≤1.5)	0.3 to 1	–
Cc1ccn2cc(-c3cc4ccc(N5CCN(C)CC5)cc4oc3=O)nc2c1 [Compound 134, 3-(7-methylimidazo[1,2-a]pyridin-2-yl)-7-(4-methylpiperazin-1-yl)-2H-chromen-2-one]	252 to 262	*** (fold increase between >1.35 and ≤1.5)	0.3 to 1	1000 to 3000
C[C@H]1CN(c2ccc3cc(-c4cccc(C(F)(F)F)c4)c(=O)oc3c2)CCN1 [Compound 490, 7-[(3S)-3-methylpiperazin-1-yl]-3-[3-(trifluoromethyl)phenyl]-2H-chromen-2-one]	141 to 143	* (maximum fold increase of ≤1.2)	1 to 3	–
O=c1oc2cc(N3CCNCC3)cc(F)c2cc1-c1nc2ccccc2s1 [Cpd 160, 3-(1,3-benzothiazol-2-yl)-5-fluoro-7-(piperazin-1-yl)-2H-chromen-2-one]	256 to 260	* (maximum fold increase of ≤1.2)	0.3 to 1	–
Cc1cn2cc(-c3cc4ccc(OCCNC(C)(C)CO)cc4oc3=O)nc2c(C)n1 [Compound 955, 3-(6,8-dimethylimidazo[1,2-a]pyrazin-2-yl)-7-{2-[(1-hydroxy-2-methylpropan-2-yl)amino]ethoxy}-2H-chromen-2-one]	187 to 191	*** (fold increase between >1.35 and ≤1.5)	0.1 to 0.3	–
O=c1oc2cc(N3CCNCC3)ccc2cc1-c1cccc(N2CCCC2)n1 [Cpd 386, 7-(piperazin-1-yl)-3-[6-(pyrrolidin-1-yl)pyridin-2-yl]-2H-chromen-2-one]	190 to 192	* (maximum fold increase of ≤1.2)	3 to 30	–
CCc1ccn2cc(-c3cc4ccc(N5CCN(C)CC5)cc4oc3=O)nc2c1 [Compound 288, 3-(7-ethylimidazo[1,2-a]pyridin-2-yl)-7-(4-methylpiperazin-1-yl)-2H-chromen-2-one]	203 to 211	* (maximum fold increase of ≤1.2)	1 to 3	–
C[C@@H]1CN(c2ccc3cc(-c4cc5ccccc5s4)c(=O)oc3c2)CCN1 [Compound 409, 3-(1-benzothiophen-2-yl)-7-[(3R)-3-methylpiperazin-1-yl]-2H-chromen-2-one]	264 to 266	* (maximum fold increase of ≤1.2)	1 to 3	–
C[C@H]1CN(c2ccc3cc(-c4cccc(Cl)c4)c(=O)oc3c2)CCN1 [Compound 509, 3-(3-chlorophenyl)-7-[(3S)-3-methylpiperazin-1-yl]-2H-chromen-2-one]	149 to 151	* (maximum fold increase of ≤1.2)	1 to 3	–
CN1CCCN(c2ccc3cc(-c4cn5cc(Cl)sc5n4)c(=O)oc3c2)CC1 [Compound 479, 3-(2-chloroimidazo[2,1-b][1,3]thiazol-6-yl)-7-(4-methyl-1,4-diazepan-1-yl)-2H-chromen-2-one]	229 to 232	* (maximum fold increase of ≤1.2)	0.3 to 1	–
Cc1cn2cc(-c3cc4ccc(CCCNCC5CCCO5)cc4oc3=O)nc2c(C)n1 (centres unmarked) [Compound 932, 3-(6,8-dimethylimidazo[1,2-a]pyrazin-2-yl)-7-{3-[(tetrahydrofuran-2-ylmethyl)amino]propyl}-2H-chromen-2-one]	147 to 150	**** (fold increase between >1.5 and ≤1.65)	< 0.1	< 300
Cc1ccn2cc(-c3cc4ccc(N5CCNC6(CCCC6)C5)cc4oc3=O)nc2c1 [Compound 596, 7-(6,9-diazaspiro[4.5]dec-9-yl)-3-(7-methylimidazo[1,2-a]pyridin-2-yl)-2H-chromen-2-one]	180	** (fold increase between >1.2 and ≤1.35)	0.3 to 1	–
Cc1cccc(-c2cc3ccc(N4CCN[C@@H](C)C4)cc3oc2=O)c1 [Compound 512, 3-(3-methylphenyl)-7-[(3S)-3-methylpiperazin-1-yl]-2H-chromen-2-one]	101 to 103	* (maximum fold increase of ≤1.2)	1 to 3	–
CC(C)NCCCc1ccc2cc(-c3nc4c(Cl)cccc4s3)c(=O)oc2c1 [Compound 36, 3-(4-chloro-1,3-benzothiazol-2-yl)-7-[3-(propan-2-ylamino)propyl]-2H-chromen-2-one]	262 to 265	* (maximum fold increase of ≤1.2)	1 to 3	–

Further lines, with some results ahead:

melting point [°C]	SMILES	maximum fold (Fold) increase of Smn protein [1]	EC (1.5-fold) [2] [µM]	EC1.5x (concentration giving 1.5-fold Smn protein increase) [1] [nM]
172 to 177	Cc1cn2cc(-c3cc4ccc(OC5CCNCC5)cc4oc3=O)nc2c(C)n1 [Compound 897, 3-(6,8-dimethylimidazo[1,2-a]pyrazin-2-yl)-7-(piperidin-4-yloxy)-2H-chromen-2-one]	***** (fold increase >1.65)	< 0.1	< 300
288 to 290	CCN1CCC(c2ccc3cc(-c4cnc5nc(C)cn5c4)c(=O)oc3c2)CC1 [Compound 836, 7-(1-ethylpiperidin-4-yl)-3-(2-methylimidazo[1,2-a]pyrimidin-6-yl)-2H-chromen-2-one]	***** (fold increase >1.65)	0.3 to 1	300 to 1000
225 to 227	Cc1ccc2nc(-c3cc4ccc(N5C[C@@H](C)N[C@@H](C)C5)cc4oc3=O)cn2n1 [Cpd 617, 7-[(3R,5S)-3,5-dimethylpiperazin-1-yl]-3-(6-methylimidazo[1,2-b]pyridazin-2-yl)-2H-chromen-2-one]	*** (fold increase between >1.35 and ≤1.5)	< 0.1	–
134 to 140	COc1ccc(-c2cc3c(F)cc(N4CCCN(C)CC4)cc3oc2=O)cc1OC [Compound 406, 3-(3,4-dimethoxyphenyl)-5-fluoro-7-(4-methyl-1,4-diazepan-1-yl)-2H-chromen-2-one]	* (maximum fold increase of ≤1.2)	3 to 30	–
217 to 221	CCN1CCC[C@H]2CN(c3ccc4cc(-c5cn6cc(C)nc(C)c6n5)c(=O)oc4c3)C[C@H]21 [Compound 803, 3-(6,8-dimethylimidazo[1,2-a]pyrazin-2-yl)-7-[(4aS,7aS)-1-ethyloctahydro-6H-pyrrolo[3,4-b]pyridin-6-yl]-2H-chromen-2-one]	*** (fold increase between >1.35 and ≤1.5)	< 0.1	–
227 to 229	CC(=O)O.CC(=O)O.COc1nc(C)cn2cc(-c3cc4ccc(N5CCN(C)[C@H](C)C5)cc4oc3=O)nc12 [Compound 759, 7-[(3R)-3,4-dimethylpiperazin-1-yl]-3-(8-methoxy-6-methylimidazo[1,2-a]pyrazin-2-yl)-2H-chromen-2-one acetate (1:2)]	*** (fold increase between >1.35 and ≤1.5)	< 0.1	–
205 to 211	O=c1oc2cc(O[C@H]3CCNC3)ccc2cc1-c1nc2ccccc2s1 [Compound 54, 3-(1,3-benzothiazol-2-yl)-7-[(3S)-pyrrolidin-3-yloxy]-2H-chromen-2-one]	* (maximum fold increase of ≤1.2)	1 to 3	–
165 to 168	Cc1cn2cc(-c3cc4ccc(OC5CCN(C)CC5)cc4oc3=O)nc2c(C)n1 [Compound 867, 3-(6,8-dimethylimidazo[1,2-a]pyrazin-2-yl)-7-[(1-methylpiperidin-4-yl)oxy]-2H-chromen-2-one]	**** (fold increase between >1.5 and ≤1.65)	< 0.1	< 300
179 to 181	COc1ccncc1-c1cc2ccc(N3CCNCC3)cc2oc1=O [Compound 234, 3-(4-methoxypyridin-3-yl)-7-(piperazin-1-yl)-2H-chromen-2-one]	* (maximum fold increase of ≤1.2)	3 to 30	–
